Each molecule was assayed on Escherichia coli (ATCC25922) or Staphylococcus aureus (ATCC25923) (assay: Antibacterial MIC, microdilution method in Mueller-Hinton medium). Settings: Escherichia coli, 18 h, MIC in E. coli or S. aureus; two-fold serial dilutions 64 to 0.5 μg/ml in duplicate; 18 hours of incubation at 35° C.; read-out: Potency (MIC).
Assay type: cell-based
Procedure, shortened: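 Read after 18 h incubation at 35° C, MIC is the lowest compound level that blocked growth. Compounds were tested in duplicate over 64–0.5 μg/ml two-fold dilutions using Mueller-Hinton microdilution per NCCLS standard.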

`CCOc1ccc(C(=O)Nc2ccc(Nc3nc(N4CCCCC4)nc(N4CCCCC4)n3)cc2O)cc1.Cl` [N-[4-(4-ethoxy-benzoylamino)-3-hydroxy-phenyl]-4,6-Bis-((3R,5S)-3,5-diamino-piperidin-1-yl)-1,3,5]triazine-2-amine] and `Cl.O=[N+]([O-])c1ccc(S(=O)(=O)c2ccc(Nc3nc(N4CCCCC4)nc(N4CCCCC4)n3)cc2)cc1` [N-[4-((2,4-dimethoxy-benzoylamino)-3-hydroxy-phenyl]-4,6-Bis-((3R,5S)-3,5-diamino-piperidin-1-yl)-[1,3,5]triazine-2-amine] cannot be ordered by MIC: under 16 µg/mL for the first, under 16 µg/mL for the second.

Compared with `COc1ccc(Nc2ccc(Nc3nc(N4C[C@H](N)C[C@H](N)C4)nc(N4C[C@H](N)C[C@H](N)C4)n3)cc2)cc1` [N-[4-(4-methoxy-phenylamino)-phenyl]-4,6-Bis-((3R,5S)-3,5-diamino-piperidin-1-yl)-[1,3,5]triazine-2-amine], `Cl.N[C@@H]1C[C@H](N)CN(c2nc(Nc3ccc4c(c3)CCC4)nc(N3C[C@H](N)C[C@H](N)C3)n2)C1` [N-indan-5-yl-4,6-Bis-((3R,5S)-3,5-diamino-piperidin-1-yl)-[1,3,5]triazine-2-amine] is higher in MIC: under 64 µg/mL for the first, over 64 µg/mL for the second.

Compared with `Cc1cc(Nc2nc(N3CCCCC3)nc(N3CCCCC3)n2)ccc1N1C(=O)c2ccc(Cl)cc2C1=O.Cl` [N-[4-(5-chloro-1,3-dioxo-1,3-dihydro-isoindol-22-yl)-3-methyl-phenyl]-4,6-Bis-((3R,5S)-3,5-diamino-piperidin-1-yl)-[1,3,5]triazine-2-amine], `CNC(=N)Nc1ccc(Nc2nc(C3CCCCC3)nc(N3CCCCC3)n2)cc1.Cl` [N-[4-(N-methyl-quanidino)-phenyl]-4,6-Bis-((3R,5S)-3,5-diamino-piperidin-1-yl)-[1,3,5]triazine-2-amine] is higher in MIC: under 64 µg/mL for the first, over 64 µg/mL for the second.

`Cl.NC(=O)CNc1nc(N2C[C@H](N)C[C@H](N)C2)nc(N2C[C@H](N)C[C@H](N)C2)n1` [N-carbamoylmethyl-4,6-Bis-((3R,5S)-3,5-diamino-piperidin-1-yl)-[1,3,5]triazine-2-amine] and `Cl.N[C@@H]1C[C@H](N)CN(c2nc(NCc3ccco3)nc(N3C[C@H](N)C[C@H](N)C3)n2)C1` [N-furan-2-ylmethyl-4,6-Bis-((3R,5S)-3,5-diamino-piperidin-1-yl)-[1,3,5]triazine-2-amine] cannot be ordered by MIC: over 64 µg/mL for the first, over 64 µg/mL for the second.

`N[C@@H]1CC(c2nc(NCc3ccco3)nc(N3C[C@H](N)C[C@H](N)C3)n2)C[C@H](N)C1` (stereo partly drawn) [N-furan-2-ylmethyl-44,6-Bis-((3R,5S)-3,5-diamino-piperidin-1-yl)-[1,3,5]triazine-2-amine] and `Cl.N[C@@H]1C[C@H](N)CN(c2nc(Nc3ccon3)nc(N3C[C@H](N)C[C@H](N)C3)n2)C1` [N-isoxazol-3-yl-4,6-Bis-((3R,5S)-3,5-diamino-piperidin-1-yl)-[1,3,5]triazine-2-amine] cannot be ordered by MIC: over 64 µg/mL for the first, over 64 µg/mL for the second.

Same assay, conditions: Escherichia coli, 18 h, read-out: Potency (MIC)

`N#Cc1ccc(NC(=O)c2ccc(Nc3nc(N4C[C@H](N)C[C@H](N)C4)nc(N4C[C@H](N)C[C@H](N)C4)n3)cc2O)cc1` [N-[4-(4-cyano-phenylcarbamoyl)-3-hydroxy-phenyl]-4,6-Bis-((3R,5S)-3,5-diamino-piperidin-1-yl)-[1,3,5]triazine-2-amine] and `N[C@@H]1C[C@H](N)CN(c2nc(Nc3ccc(C(=O)Nc4ccc(F)cc4)c(O)c3)nc(N3C[C@H](N)C[C@H](N)C3)n2)C1` [N-[4-(4-fluoro-phenylcarbamoyl)-3-hydroxy-phenyl]-4,6-Bis-((3R,5S)-3,5-diamino-piperidin-1-yl)-[1,3,5]triazine-2-amine] cannot be ordered by MIC: under 64 µg/mL for the first, under 16 µg/mL for the second.

`CCCCCCCCCC(=O)Nc1ccc(S(=O)(=O)Nc2ccc(Nc3nc(N4C[C@H](N)C[C@H](N)C4)nc(N4C[C@H](N)C[C@H](N)C4)n3)cc2O)cc1` [N-[4-(4-decanoylamino-benzenesulfonylamino)-3-hydroxy-phenyl]-4,6-Bis-((3R,5S)-3,5-diamino-piperidin-1-yl)-[1,3,5]triazine-2-amine] and `N[C@@H]1C[C@H](N)CN(c2nc(Nc3ccc(NC(=O)c4cc(Br)ccc4O)cc3)nc(N3C[C@H](N)C[C@H](N)C3)n2)C1` [N-[4-(5-bromo-2-hydroxy-benzoylamino)-phenyl]-4,6-Bis-((3R,5S)-3,5-diamino-piperidin-1-yl)-[1,3,5]triazine-2-amine] cannot be ordered by MIC: under 16 µg/mL for the first, under 16 µg/mL for the second.

`CN(C)c1ccc(C(=O)Nc2ccc(Nc3nc(N4C[C@H](N)C[C@H](N)C4)nc(N4C[C@H](N)C[C@H](N)C4)n3)cc2O)c(O)c1` [N-[4-(4-dimethylamino-2-hydroxy-benzoylamino)-3-hydroxy-phenyl]-4,6-Bis-((3R,5S)-3,5-diamino-piperidin-1-yl)-[1,3,5]triazine-2-amine] and `N[C@@H]1C[C@H](N)CN(c2nc(Nc3ccc(NC(=O)c4ccc(F)cc4O)c(O)c3)nc(N3C[C@H](N)C[C@H](N)C3)n2)C1` [N-[4-(4-fluoro-2-hydroxy-benzoylamino)-3-hydroxy-phenyl]-4,6-Bis-((3R,5S)-3,5-diamino-piperidin-1-yl)-[1,3,5]triazine-2-amine] cannot be ordered by MIC: under 16 µg/mL for the first, under 16 µg/mL for the second.

`CN(C)c1ccc(C(=O)Nc2ccc(Nc3nc(N4C[C@H](N)C[C@H](N)C4)nc(N4C[C@H](N)C[C@H](N)C4)n3)cc2)c(O)c1` [N-[4-(4-dimethylamino-2-hydroxy-benzoylamino)-phenyl]-4,6-Bis-((3R,5S)-3,5-diamino-piperidin-1-yl)-[1,3,5]triazine-2-amine] and `N[C@@H]1C[C@H](N)CN(c2nc(Nc3ccc(NC(=O)c4ccc(F)cc4O)cc3)nc(N3C[C@H](N)C[C@H](N)C3)n2)C1` [N-[4-(4-fluoro-2-hydroxy-benzoylamino)-phenyl]-4,6-Bis-((3R,5S)-3,5-diamino-piperidin-1-yl)-[1,3,5]triazine-2-amine] cannot be ordered by MIC: under 16 µg/mL for the first, under 16 µg/mL for the second.

`Cc1ccnc(NS(=O)(=O)c2ccc(Nc3nc(N4C[C@H](N)C[C@H](N)C4)nc(N4C[C@H](N)C[C@H](N)C4)n3)cc2)n1` [N-[4-(4-methyl-pyrimidin-2-ylsulfamoyl)-phenyl]-4,6-Bis-((3R,5S)-3,5-diamino-piperidin-1-yl)-[1,3,5]triazine-2-amine] and `N[C@@H]1C[C@H](N)CN(c2nc(Nc3ccc(S(=O)(=O)Nc4ccccn4)cc3)nc(N3C[C@H](N)C[C@H](N)C3)n2)C1` [N-[4-(pyridin-2-ylsulfamoyl)-phenyl]-4,6-Bis-((3R,5S)-3,5-diamino-piperidin-1-yl)-[1,3,5]triazine-2-amine] cannot be ordered by MIC: over 64 µg/mL for the first, over 64 µg/mL for the second.

`N[C@@H]1C[C@H](N)CN(c2nc(Nc3ccc(S(=O)(=O)c4ccc([N+](=O)[O-])cc4)cc3)nc(N3C[C@H](N)C[C@H](N)C3)n2)C1` [N-[4-(4-nitro-benzenesulfonyl)-phenyl]-4,6-Bis((3R,5S)-3,5-diamino-piperidin-1-yl)-[1,3,5]triazine-2-amine] and `N[C@@H]1C[C@H](N)CN(c2nc(Nc3ccc(-c4ccccc4)cc3)nc(N3C[C@H](N)C[C@H](N)C3)n2)C1` [N-biphenyl-4-yl-4,6-Bis-((3R,5S)-3,5-diamino-piperidin-1-yl)-[1,3,5]triazine-2-amine] cannot be ordered by MIC: under 64 µg/mL for the first, under 64 µg/mL for the second.

`N[C@@H]1C[C@H](N)CN(c2nc(Nc3ccc(C(=O)N4CCc5cc(Br)ccc54)c(O)c3)nc(N3C[C@H](N)C[C@H](N)C3)n2)C1` [N-[4-(5-bromo-2,3-dihydro-indole-1-carbonyl)-3-hydroxy-phenyl]-4,6-Bis-((3R,5S)-3,5-diamino-piperidin-1-yl)-[1,3,5]triazine-2-amine] and `N[C@@H]1C[C@H](N)CN(c2nc(Nc3ccc(NC(=O)c4cc(Br)ccc4O)c(O)c3)nc(N3C[C@H](N)C[C@H](N)C3)n2)C1` [N-[4-(5-bromo-2-hydroxy-benzoylamino)-3-hydroxy-phenyl]-4,6-Bis-((3R,5S)-3,5-diamino-piperidin-1-yl)-[1,3,5]triazine-2-amine] cannot be ordered by MIC: under 16 µg/mL for the first, under 16 µg/mL for the second.

`Cc1ccc2nc(-c3ccc(Nc4nc(N5C[C@H](N)C[C@H](N)C5)nc(N5C[C@H](N)C[C@H](N)C5)n4)cc3)sc2c1` [N-[4-(6-methyl-benzothiazol-2-yl)-phenyl]-4,6-Bis-((3R,5S)-3,5-diamino-piperidin-1-yl)-[1,3,5]triazine-2-amine] and `N[C@@H]1C[C@H](N)CN(c2nc(Nc3nc4ccccc4s3)nc(N3C[C@H](N)C[C@H](N)C3)n2)C1` [N-benzothiazol-2-yl-4,6-Bis-((3R,5S)-3,5-diamino-piperidin-1-yl)-[1,3,5]triazine-2-amine] cannot be ordered by MIC: under 16 µg/mL for the first, under 64 µg/mL for the second.

`N[C@@H]1C[C@H](N)CN(c2nc(Nc3ccc(C(=O)Nc4ccc5c(c4)OCO5)c(O)c3)nc(N3C[C@H](N)C[C@H](N)C3)n2)C1` [N-[4-(benzo[1,3]dioxol-5-ylcarbamoyl)-3-hydroxy-phenyl]-4,6-Bis-((3R,5S)-3,5-diamino-piperidin-1-yl)-[1,3,5]triazine-2-amine] and `N[C@@H]1C[C@H](N)CN(c2nc(Nc3ccc(C(=O)Nc4ccc(-c5ccccc5)cc4)c(O)c3)nc(N3C[C@H](N)C[C@H](N)C3)n2)C1` [N-[4-(biphenyl-4-ylcarbamoyl)-3-hydroxy-phenyl]-4,6-Bis-((3R,5S)-3,5-diamino-piperidin-1-yl)-[1,3,5]triazine-2-amine] cannot be ordered by MIC: under 16 µg/mL for the first, under 16 µg/mL for the second.

`CCN(c1ccc(Nc2nc(N3C[C@H](N)C[C@H](N)C3)nc(N3C[C@H](N)C[C@H](N)C3)n2)cc1)C(C)C` [N-[4-(ethyl-isopropyl-amino)-phenyl]-4,6-Bis-((3R,5S)-3,5-diamino-piperidin-1-yl)-[1,3,5]triazine-2-amine] and `N[C@@H]1C[C@H](N)CN(c2nc(NCc3ccc4c(c3)OCO4)nc(N3C[C@H](N)C[C@H](N)C3)n2)C1` [N-benzo[1,3]dioxol-5-ylmethyl-4,6-Bis-((3R,5S)-3,5-diamino-piperidin-1-yl)-[1,3,5]triazine-2-amine] cannot be ordered by MIC: over 64 µg/mL for the first, over 64 µg/mL for the second.

`N[C@@H]1C[C@H](N)CN(c2nc(NCc3ccc(-c4ccccc4)cc3)nc(N3C[C@H](N)C[C@H](N)C3)n2)C1` [N-biphenyl-4-ylmethyl-4,6-Bis-((3R,5S)-3,5-diamino-piperidin-1-yl)-[1,3,5]triazine-2-amine] gave an MIC of under 64 µg/mL.

From patent US7223759B2, “Antibacterial 3,5-diaminopiperidine-substituted aromatic and heteroaromatic compounds” (Anadys Pharmaceuticals, Inc., priority 2003, dated 2007)
